Reference: patent US11851387B2, “Para-phenylenediamine derivative, 1,4-cyclohexyldiamine derivative, and fabricating method for 1,4-diamine cyclic compound derivative” (Yuanhan Materials Inc., priority 2021, dated 2023)

Assay: Solubility in solvent commonly used in the synthesis of polyimide (NMP, DMAc)
Assay type: physicochemical
Excerpt: In the following descriptions, features and effects of the present disclosure will be described more specifically with reference to some Embodiments and some Comparative Examples. It is noted that without exceeding the scope of the present disclosure, the materials used, their amount and ratio, processing details, processing flow, etc. can be appropriately alternated. Therefore, the present disclosure should not be interpreted restrictively by the Embodiments provided below. Specifically, each Comparative Example and each Embodiment are thoroughly mixed with solvent commonly used in the synthesis of polyimide (e.g., N-methylpyrrolidone (NMP) and dimethylacetamide (DMAc)), and the solubility of each Comparative Example and each Embodiment in the solvent is measured, so as to verify the efficacy of the present disclosure. The detailed description and the measurement results of the solubility of each Comparative Example and each Embodiment are shown in Table 1.

## Nc1ccc(N)cc1 [Comparative Example 1, para-phenylenediamine]
Solvent NMP, dissolution temperature 50° C.
  Solubility (g/100 g solvent): 4.1 g/100 g solvent

## NC1CCC(N)CC1 (centres unmarked) [Comparative Example 2, 1,4-cyclohexanediamine]
Solvent DMAc, dissolution temperature 70° C.
  Solubility (g/100 g solvent): 5.7 g/100 g solvent
